Measured values: publication PMC6008465 (British Journal of Cancer, 2018)

Legend:
cyclin D1 = details: quoted in discussion, no reference given, cited from earlier work
[1] = test system: patients with advanced BRAF-mutated or wild-type (WT) melanoma; test: Phase 1 Part B (expansion): safety, MTD confirmation; type: in vivo, human
Experimental: In Part B, an adaptive study design was planned to define an optimal dosing schedule. Two schedules were evaluated: Schedule I (once-weekly dosing at the MTD, 320 mg/m^2, on Days 1, 8, and 15 of a 28-day cycle) and Schedule II (twice-weekly dosing, on Days 1, 4, 8, 11, 15, and 18 of a 28-day cycle, starting at 160 mg/m^2, based on the Schedule I MTD). One dose escalation (from 160 mg/m^2 to 320 mg/m^2) was allowed in Schedule II for MTD determination. […] Toxicity was managed as before. Up to 30 patients with BRAF-mutated melanoma and up to 29 patients with BRAF-WT melanoma were to be enrolled in Schedule I. Up to 30 patients were to be enrolled into Schedule II once the MTD was confirmed. Based on the efficacy observed in Part A, Schedule II was initiated only in patients with BRAF-mutated melanoma. Patients could continue to receive E6201 as long as there was evidence of clinical benefit (extension phase).
(§1) Safety was assessed by monitoring AEs, serious AEs (SAEs), laboratory parameters, vital signs, 12-lead electrocardiograms (ECGs), Eastern Cooperative Oncology Group performance status, and symptom-directed physical and neurologic examination findings. AEs were graded by investigators based on the National Cancer Institute Common Terminology Criteria for Adverse Events, version 3.[16]

[2] = test system: patients with advanced solid tumours, including melanoma; test: Phase 1 study overall (Parts A and B): safety; type: in vivo, human
Experimental: as §1

phosphor-ERK levels = details: quoted in discussion, no reference given; read-out: IC50 for inhibition of phosphor-ERK levels; cited from earlier work
[3] = test system: BRAF-mutated human cancer xenograft models; details: Q4D x3 schedule; cited from earlier work
IL-6 = details: quoted in discussion, no reference given, cited from earlier work
[4] = Part B, BRAF-WT 320 mg/m^2 once weekly (n=7)
[5] = Part B, BRAF-mutated 160 mg/m^2 twice weekly (n=3)
[6] = Part B, BRAF-mutated 320 mg/m^2 once weekly (n=20)
[7] = Part B, BRAF-mutated 320 mg/m^2 once-weekly group

## CCNc1cc(O)c2c(c1)/C=C/C[C@H](O)[C@H](O)C(=O)/C=C\[C@@H](C)[C@H](C)OC2=O [E6201, (3S,4R,5Z,8S,9S,11E)-14-(ethylamino)-8,9,16-trihydroxy-3,4-dimethyl-3,4,9,19-tetrahydro-1H-2-benzoxacyclotetradecine-1,7 (8H)-dione]
Cyclin D1
  IC50 for inhibition of cyclin D1: 1.87 ng/mL
Cyclin D1; read-out: IC50 for inhibition of cyclin D1
  IC50: 4.8 nM
[1]; Part B
  Patients who discontinued treatment due to SAEs: 4 patients
[1]; Part B overall, 11 patients
  Fatigue TEAE, patients: 36.7%
[1]; Part B, 2 patients
  Grade 3/4 abdominal pain, patients: 6.7%
  Grade 3/4 dyspnea, patients: 6.7%
[1]; Part B, 14 patients
  Treatment-emergent SAEs other than death, patients: 46.7%
[1]; Part B, 15 patients
  Grade 3/4 TEAEs, patients: 50.0%
[1]; Part B, 19 patients
  Patients with ≥1 TEAE assessed as treatment-related: 63.3%
[1]; Part B, 60-min infusion, 1 patient
  QT prolongation reported as an AE (grade 3, possibly related, not DLT), patients: 3.3%
[1]; [4]
  Anemia TEAE incidence, All grades: 3 (42.9) n (%)
  Anemia TEAE incidence, G≥3: 1 (14.3) n (%)
  Constipation TEAE incidence, All grades: 2 (28.6) n (%)
  Constipation TEAE incidence, G≥3: 0 n (%)
  Cough TEAE incidence, All grades: 1 (14.3) n (%)
  Cough TEAE incidence, G≥3: 0 n (%)
  Decreased appetite TEAE incidence, All grades: 2 (28.6) n (%)
  Decreased appetite TEAE incidence, G≥3: 0 n (%)
  Fatigue TEAE incidence, All grades: 4 (57.1) n (%)
  Fatigue TEAE incidence, G≥3: 0 n (%)
  Muscular weakness TEAE incidence, All grades: 2 (28.6) n (%)
  Muscular weakness TEAE incidence, G≥3: 0 n (%)
  Nausea TEAE incidence, All grades: 2 (28.6) n (%)
  Nausea TEAE incidence, G≥3: 0 n (%)
  Pain in extremity TEAE incidence, All grades: 2 (28.6) n (%)
  Pain in extremity TEAE incidence, G≥3: 1 (14.3) n (%)
  Peripheral edema TEAE incidence, All grades: 2 (28.6) n (%)
  Peripheral edema TEAE incidence, G≥3: 1 (14.3) n (%)
  Pyrexia TEAE incidence, All grades: 1 (14.3) n (%)
  Pyrexia TEAE incidence, G≥3: 0 n (%)
  Vomiting TEAE incidence, All grades: 1 (14.3) n (%)
  Vomiting TEAE incidence, G≥3: 0 n (%)
[1]; Part B, BRAF-mutated 160 mg/m^2 once-weekly group (so in the source)
  Deaths (multisystem organ failure, not considered related): One
[1]; [5]
  Anemia TEAE incidence, All grades: 1 (33.3) n (%)
  Anemia TEAE incidence, G≥3: 0 n (%)
  Constipation TEAE incidence, All grades: 0 n (%)
  Constipation TEAE incidence, G≥3: 0 n (%)
  Cough TEAE incidence, All grades: 1 (33.3) n (%)
  Cough TEAE incidence, G≥3: 0 n (%)
  Decreased appetite TEAE incidence, All grades: 0 n (%)
  Decreased appetite TEAE incidence, G≥3: 0 n (%)
  Fatigue TEAE incidence, All grades: 0 n (%)
  Fatigue TEAE incidence, G≥3: 0 n (%)
  Muscular weakness TEAE incidence, All grades: 1 (33.3) n (%)
  Muscular weakness TEAE incidence, G≥3: 0 n (%)
  Nausea TEAE incidence, All grades: 1 (33.3) n (%)
  Nausea TEAE incidence, G≥3: 1 (33.3) n (%)
  Pain in extremity TEAE incidence, All grades: 1 (33.3) n (%)
  Pain in extremity TEAE incidence, G≥3: 0 n (%)
  Peripheral edema TEAE incidence, All grades: 1 (33.3) n (%)
  Peripheral edema TEAE incidence, G≥3: 0 n (%)
  Pyrexia TEAE incidence, All grades: 0 n (%)
  Pyrexia TEAE incidence, G≥3: 0 n (%)
  Vomiting TEAE incidence, All grades: 1 (33.3) n (%)
  Vomiting TEAE incidence, G≥3: 1 (33.3) n (%)
[1]; [6]
  Anemia TEAE incidence, All grades: 1 (5.0) n (%)
  Anemia TEAE incidence, G≥3: 0 n (%)
  Constipation TEAE incidence, All grades: 3 (15.0) n (%)
  Constipation TEAE incidence, G≥3: 0 n (%)
  Cough TEAE incidence, All grades: 3 (15.0) n (%)
  Cough TEAE incidence, G≥3: 0 n (%)
  Decreased appetite TEAE incidence, All grades: 3 (15.0) n (%)
  Decreased appetite TEAE incidence, G≥3: 0 n (%)
  Fatigue TEAE incidence, All grades: 7 (35.0) n (%)
  Fatigue TEAE incidence, G≥3: 0 n (%)
  Muscular weakness TEAE incidence, All grades: 2 (10.0) n (%)
  Muscular weakness TEAE incidence, G≥3: 0 n (%)
  Nausea TEAE incidence, All grades: 7 (35.0) n (%)
  Nausea TEAE incidence, G≥3: 0 n (%)
  Pain in extremity TEAE incidence, All grades: 2 (10.0) n (%)
  Pain in extremity TEAE incidence, G≥3: 0 n (%)
  Peripheral edema TEAE incidence, All grades: 2 (10.0) n (%)
  Peripheral edema TEAE incidence, G≥3: 0 n (%)
  Pyrexia TEAE incidence, All grades: 4 (20.0) n (%)
  Pyrexia TEAE incidence, G≥3: 0 n (%)
  Vomiting TEAE incidence, All grades: 5 (25.0) n (%)
  Vomiting TEAE incidence, G≥3: 0 n (%)
[1]; Part B, BRAF-mutated 320 mg/m^2 once-weekly
  Patients with grade 1 photophobia (possibly related): one
[1]; [7]
  Deaths (not considered related to E6201): 2 patients
  Patients with grade 4 pericardial effusion (unrelated): 1 patient
[1]; Part B, Total (N=30)
  Anemia TEAE incidence, All grades: 5 (16.7) n (%)
  Anemia TEAE incidence, G≥3: 1 (3.3) n (%)
  Constipation TEAE incidence, All grades: 5 (16.7) n (%)
  Constipation TEAE incidence, G≥3: 0 n (%)
  Cough TEAE incidence, All grades: 5 (16.7) n (%)
  Cough TEAE incidence, G≥3: 0 n (%)
  Decreased appetite TEAE incidence, All grades: 5 (16.7) n (%)
  Decreased appetite TEAE incidence, G≥3: 0 n (%)
  Fatigue TEAE incidence, All grades: 11 (36.7) n (%)
  Fatigue TEAE incidence, G≥3: 0 n (%)
  Muscular weakness TEAE incidence, All grades: 5 (16.7) n (%)
  Muscular weakness TEAE incidence, G≥3: 0 n (%)
  Nausea TEAE incidence, All grades: 10 (33.3) n (%)
  Nausea TEAE incidence, G≥3: 1 (3.3) n (%)
  Pain in extremity TEAE incidence, All grades: 5 (16.7) n (%)
  Pain in extremity TEAE incidence, G≥3: 1 (3.3) n (%)
  Peripheral edema TEAE incidence, All grades: 5 (16.7) n (%)
  Peripheral edema TEAE incidence, G≥3: 1 (3.3) n (%)
  Pyrexia TEAE incidence, All grades: 5 (16.7) n (%)
  Pyrexia TEAE incidence, G≥3: 0 n (%)
  Vomiting TEAE incidence, All grades: 7 (23.3) n (%)
  Vomiting TEAE incidence, G≥3: 1 (3.3) n (%)
[1]; Part B, four patients across dose groups
  QTcF prolongation to 450–500 ms, patients: 13.3%
[1]; Part B, seven patients
  QTcF increase from baseline 30–60 ms, patients: 23.3%
[1]; Part B, two patients, BRAF-mutated 320 mg/m^2 once-weekly group
  QTcF increase from baseline ≥60 ms, patients: 6.7%
[1]; Part B, 60-min infusion once-weekly for 3 weeks of a 28-day cycle
  Maximum-tolerated dose (MTD), confirmed: 320 mg/m^2
[2]; Parts A and B
  Patients who died during the study: Four
[2]; during the study
  AEs of cardiomyopathy: no reported AEs of cardiomyopathy
  New skin cancers: No new skin cancers were reported
phosphor-ERK levels
  IC50: 2.08 nM
[3]
  Duration of significant and prolonged anti-tumour activity from first dose: > 20 days
IL-6
  IC50 for inhibition of spontaneous secretion of IL-6: 4.09 ng/mL
IL-6; read-out: IC50 for inhibition of spontaneous secretion of IL-6
  IC50: 10.5 nM
